Measurements as given in PubChem BioAssay (NCI).
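Dose response: 5 concentrations. Exposure: 48 h. Format: 96-well plates. Endpoint: linear interpolation; highest concentration if not reached. GI50 is the concentration that inhibits growth by half. The concentration for full growth arrest is given as TGI.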

What was measured:
Assay in all cases: inhibition of tumour cell growth, NCI panel, 48 h
DU-145 prostate = system: DU-145 prostate
SK-MEL-2 melanoma = system: SK-MEL-2 melanoma
COLO 205 colon = system: COLO 205 colon
HOP-92 NSCLC = system: HOP-92 NSCLC
NCI-H522 lung = system: NCI-H522 lung
OVCAR-4 ovarian = system: OVCAR-4 ovarian
OVCAR-8 ovarian = system: OVCAR-8 ovarian
SW-620 colon = system: SW-620 colon
A549 NSCLC = system: A549 NSCLC
SN12C renal = system: SN12C renal
A498 renal = system: A498 renal
HCC-2998 colon = system: HCC-2998 colon
MALME-3M melanoma = system: MALME-3M melanoma
CAKI-1 renal = system: CAKI-1 renal
NCI/ADR-RES ovarian = system: NCI/ADR-RES ovarian
786-0 renal = system: 786-0 renal
HS 578T breast = system: HS 578T breast
HL-60(TB) leukemia = system: HL-60(TB) leukemia
MCF7 breast = system: MCF7 breast
SNB-75 CNS = system: SNB-75 CNS
SF-539 CNS = system: SF-539 CNS
ACHN renal = system: ACHN renal
TK-10 renal = system: TK-10 renal
MOLT-4 leukemia = system: MOLT-4 leukemia
MDA-MB-231 breast = system: MDA-MB-231 breast
BT-549 breast = system: BT-549 breast
OVCAR-5 ovarian = system: OVCAR-5 ovarian
PC-3 prostate = system: PC-3 prostate
SK-MEL-5 melanoma = system: SK-MEL-5 melanoma
SK-OV-3 ovarian = system: SK-OV-3 ovarian
HT29 colon = system: HT29 colon
HCT-116 colon = system: HCT-116 colon
UACC-62 melanoma = system: UACC-62 melanoma
LOX IMVI melanoma = system: LOX IMVI melanoma
RXF 393 renal = system: RXF 393 renal
CCRF-CEM leukemia = system: CCRF-CEM leukemia
MDA-MB-435 = system: MDA-MB-435
NCI-H226 lung = system: NCI-H226 lung
IGROV1 ovarian = system: IGROV1 ovarian
UO-31 renal = system: UO-31 renal
K-562 leukemia = system: K-562 leukemia
NCI-H460 lung = system: NCI-H460 lung
U251 CNS = system: U251 CNS
HCT-15 colon = system: HCT-15 colon
OVCAR-3 ovarian = system: OVCAR-3 ovarian
UACC-257 melanoma = system: UACC-257 melanoma
T-47D breast = system: T-47D breast
SK-MEL-28 melanoma = system: SK-MEL-28 melanoma
SF-268 CNS = system: SF-268 CNS
SNB-19 CNS = system: SNB-19 CNS
HOP-62 NSCLC = system: HOP-62 NSCLC
M14 melanoma = system: M14 melanoma
NCI-H23 lung = system: NCI-H23 lung
KM12 colon = system: KM12 colon
SF-295 CNS = system: SF-295 CNS
SR leukemia = system: SR leukemia
RPMI-8226 leukemia = system: RPMI-8226 leukemia

For CN1C(=O)C(c2c[nH]c3ccccc23)=C(c2c[nH]c3ccccc23)C1=O, the GI50 (DU-145 prostate) was 9.38 µM, the TGI (DU-145 prostate) was > 25 µM and the GI50 (SK-MEL-2 melanoma) was 5.26 µM. The TGI (SK-MEL-2 melanoma) was 13.4 µM, the GI50 (COLO 205 colon) was 4.77 µM and the TGI (COLO 205 colon) was 12.4 µM. It also gave a GI50 (HOP-92 NSCLC) of 3.08 µM, a TGI (HOP-92 NSCLC) of 13.3 µM and a GI50 (NCI-H522 lung) of 4.69 µM. The TGI (NCI-H522 lung) was 12.5 µM, the GI50 (OVCAR-4 ovarian) was 7.58 µM and the TGI (OVCAR-4 ovarian) was > 25 µM. For the same molecule, the GI50 (OVCAR-8 ovarian) was 7.67 µM, the TGI (OVCAR-8 ovarian) was > 25 µM and the GI50 (SW-620 colon) was 5.78 µM. The TGI (SW-620 colon) was > 25 µM, the GI50 (A549 NSCLC) was 7.08 µM and the TGI (A549 NSCLC) was > 25 µM. For the same molecule, the GI50 (SN12C renal) was 7.75 µM, the TGI (SN12C renal) was > 25 µM and the GI50 (A498 renal) was 3.55 µM. It also gave a TGI (A498 renal) of 17.2 µM, a GI50 (HCC-2998 colon) of 5.46 µM and a TGI (HCC-2998 colon) of 13.1 µM. For the same molecule, the GI50 (MALME-3M melanoma) was 7.44 µM, the TGI (MALME-3M melanoma) was > 20.8 µM and the GI50 (CAKI-1 renal) was 3.92 µM. The TGI (CAKI-1 renal) was 12.1 µM, the GI50 (NCI/ADR-RES ovarian) was 6.66 µM and the TGI (NCI/ADR-RES ovarian) was > 25 µM. For the same molecule, the GI50 (786-0 renal) was 9.85 µM, the TGI (786-0 renal) was > 25 µM and the GI50 (HS 578T breast) was 5.18 µM. For the same molecule, the TGI (HS 578T breast) was 21.3 µM, the GI50 (HL-60(TB) leukemia) was 6.37 µM and the TGI (HL-60(TB) leukemia) was 18.1 µM. For the same molecule, the GI50 (MCF7 breast) was 5.24 µM, the TGI (MCF7 breast) was > 24.1 µM and the GI50 (SNB-75 CNS) was 4.26 µM. For the same molecule, the TGI (SNB-75 CNS) was > 25 µM, the GI50 (SF-539 CNS) was 6.87 µM and the TGI (SF-539 CNS) was > 25 µM. The GI50 (ACHN renal) was 6 µM, the TGI (ACHN renal) was > 25 µM and the GI50 (TK-10 renal) was 12.5 µM. For the same molecule, the TGI (TK-10 renal) was > 25 µM, the GI50 (MOLT-4 leukemia) was 7.83 µM and the TGI (MOLT-4 leukemia) was > 25 µM. For the same molecule, the GI50 (MDA-MB-231 breast) was 4.22 µM, the TGI (MDA-MB-231 breast) was 15.8 µM and the GI50 (BT-549 breast) was 8.14 µM. The TGI (BT-549 breast) was 24.7 µM, the GI50 (OVCAR-5 ovarian) was 9.88 µM and the TGI (OVCAR-5 ovarian) was > 25 µM. The GI50 (PC-3 prostate) was 4.46 µM, the TGI (PC-3 prostate) was > 25 µM and the GI50 (SK-MEL-5 melanoma) was 4.5 µM. For the same molecule, the TGI (SK-MEL-5 melanoma) was 10.9 µM, the GI50 (SK-OV-3 ovarian) was 12 µM and the TGI (SK-OV-3 ovarian) was > 25 µM. The GI50 (HT29 colon) was 8.47 µM, the TGI (HT29 colon) was > 25 µM and the GI50 (HCT-116 colon) was 6.75 µM. For the same molecule, the TGI (HCT-116 colon) was > 25 µM, the GI50 (UACC-62 melanoma) was 3.07 µM and the TGI (UACC-62 melanoma) was 17.3 µM. For the same molecule, the GI50 (LOX IMVI melanoma) was 3.73 µM, the TGI (LOX IMVI melanoma) was 9.3 µM and the GI50 (RXF 393 renal) was 4.41 µM. The TGI (RXF 393 renal) was 12.8 µM, the GI50 (CCRF-CEM leukemia) was 7.84 µM and the TGI (CCRF-CEM leukemia) was > 25 µM. It also gave a GI50 (MDA-MB-435) of 5.49 µM, a TGI (MDA-MB-435) of 16.2 µM and a GI50 (NCI-H226 lung) of 5.96 µM. The TGI (NCI-H226 lung) was > 19.4 µM, the GI50 (IGROV1 ovarian) was 5.47 µM and the TGI (IGROV1 ovarian) was > 22.8 µM. For the same molecule, the GI50 (UO-31 renal) was 2.64 µM, the TGI (UO-31 renal) was > 20.6 µM and the GI50 (K-562 leukemia) was 7.77 µM. The TGI (K-562 leukemia) was > 25 µM, the GI50 (NCI-H460 lung) was 5.52 µM and the TGI (NCI-H460 lung) was 15 µM. The GI50 (U251 CNS) was 7.03 µM, the TGI (U251 CNS) was > 25 µM and the GI50 (HCT-15 colon) was 5.77 µM. The TGI (HCT-15 colon) was > 25 µM, the GI50 (OVCAR-3 ovarian) was 7.03 µM and the TGI (OVCAR-3 ovarian) was > 25 µM. It also gave a GI50 (UACC-257 melanoma) of 7.65 µM, a TGI (UACC-257 melanoma) of 24.8 µM and a GI50 (T-47D breast) of 6.57 µM. For the same molecule, the TGI (T-47D breast) was > 25 µM, the GI50 (SK-MEL-28 melanoma) was 7.84 µM and the TGI (SK-MEL-28 melanoma) was > 25 µM. For the same molecule, the GI50 (SF-268 CNS) was 7.27 µM, the TGI (SF-268 CNS) was > 25 µM and the GI50 (SNB-19 CNS) was 9.77 µM. The TGI (SNB-19 CNS) was > 25 µM, the GI50 (HOP-62 NSCLC) was 6.68 µM and the TGI (HOP-62 NSCLC) was > 25 µM. For the same molecule, the GI50 (M14 melanoma) was 5.96 µM, the TGI (M14 melanoma) was 17.2 µM and the GI50 (NCI-H23 lung) was 6.61 µM. The TGI (NCI-H23 lung) was > 25 µM, the GI50 (KM12 colon) was 5.66 µM and the TGI (KM12 colon) was > 21.3 µM. It also gave a GI50 (SF-295 CNS) of 4.48 µM, a TGI (SF-295 CNS) of 11.8 µM and a GI50 (SR leukemia) of 7.14 µM. For the same molecule, the TGI (SR leukemia) was > 25 µM, the GI50 (RPMI-8226 leukemia) was 6.84 µM and the TGI (RPMI-8226 leukemia) was 25 µM.
